# Literature values, collected in patent publication US8916562B2, “Methods and compositions for safe and effective treatment of telangiectasia” (Galderma Research & Development SNC, priority 2010, dated 2014).
# Settings: brimonidine ophthalmic treatment, clinical trials
smiles,measurement,value
"Brc1c(NC2=NCCN2)ccc2nccnc12 [brimonidine, (5-bromo-quinoxalin-6-yl)-(4,5-dihydro-1H-imidazol-2-yl)-amine]","patients reporting hypertension, palpitations and syncope",less than 3%
